One data set addresses T1, BRN2 (Homo sapiens, UniProt P20265).
T1 sequence (P20265 1-443): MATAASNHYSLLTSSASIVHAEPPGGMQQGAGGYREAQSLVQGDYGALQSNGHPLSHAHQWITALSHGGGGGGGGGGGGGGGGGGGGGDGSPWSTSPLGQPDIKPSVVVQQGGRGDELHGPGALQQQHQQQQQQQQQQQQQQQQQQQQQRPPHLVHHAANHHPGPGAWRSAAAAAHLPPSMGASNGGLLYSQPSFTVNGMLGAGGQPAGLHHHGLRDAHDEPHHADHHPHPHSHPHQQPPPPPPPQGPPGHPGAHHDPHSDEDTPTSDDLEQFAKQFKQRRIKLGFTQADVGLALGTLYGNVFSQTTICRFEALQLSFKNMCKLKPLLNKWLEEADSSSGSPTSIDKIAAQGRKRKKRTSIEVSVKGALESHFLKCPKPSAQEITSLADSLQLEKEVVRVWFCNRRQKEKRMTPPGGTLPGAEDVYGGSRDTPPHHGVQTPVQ
As to the kind of experiment: Drug Affinity Responsive Target Stability (DARTS) assay. As to conditions: printed in BLI binding column; 42D^ENZR lysate. The procedure:
Step 2: Drug Affinity Responsive Target Stability (DARTS) Assay
This in cell assay provides a yes/no answer to direct interaction between BRN2 inhibitor and protein.
1) Prepare and place the following on ice: • Pronase • TNC 10× • 500 mM Tris-HCl (pH 8.0) • 500 mM NaCl, 100 mM CaCl2 • DMSO • Drug • 10 mL NP40+Protease inhibitor+Phosphatase inhibitor solution (can store in 4° C. and use for up to 4 weeks): • 2 mL NP40 5× • 8 mL ddH2O • 1 PhosphoSTOP™ pill • 200 uL protease inhibitor 50×
2) Remove the growth medium from the cell plate (42D^ENZR) and add 10 mL of cold PBS/vanadate.
3) Scrape the cells. Remove the PBS-cell solution and add in a falcon tube.
4) Name a new 1.5 ml Eppendorf tube and put on ice to pre-chill.
5) Centrifuge the cells at 1500 for 5 minutes at 4° C. Remove supernatant and re-suspend the cells in 600 uL NP40 lysis buffer by pipetting up and down. If the cell pellet is small use less volume, for example 300 μl)
6) Transfer the lysing cells into the pre-chilled Eppendorf tube. Incubate on ice for 20 minutes. If not continuing the DARTS on the same day, you can put the lysate in −30 and work on it later.
Preparing Cell Lysates for DARTS:
7) Centrifuge the tube at maximum speed for 25-30 minutes at 4° C.
8) Discard the pellet (either transfer the supernatant in a new tube or just take out the pellet). […]
20) The samples are ready for Western blot gel running. […]
(In BLI a coated tip is dipped into the sample, and binding shifts an interference pattern.)

Data set [1] can be described thus: Metabolic stability in liver microsomes (MLM). In kind it is in vitro ADME, mice. The following applies: 0.25 mg/mL protein. An outline of the steps: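 Mouse liver microsomes (0.25 mg/mL protein) in 50 mM potassium phosphate pH 7.4 at 37 °C with 1 µM compound, 1 mM NADPH, 0.1% DMSO; sampled 0–60 min in duplicate. LC-MS/MS parent depletion gives half-life; CL'int in mL/min/kg scaled with 45 mg protein/g liver, 90 g liver.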
In general terms: Liver microsomes are vesicles of endoplasmic reticulum, rich in cytochrome P450 enzymes.

The test system of a further data set is 42D^ENZR cells. Description: Cell proliferation, BRN2 expressing 42D cells (crystal violet). In kind it is cell-based. The following applies: 42D (express BRN2) versus 16D (no BRN2) cells, about 72 hours; result in words. Put shortly: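 42D^ENZR (~7000/well) and 16D^CRPC (~5000/well) cells plated, compound added next day from 3× media stocks. After ~72 hours, cells fixed with glutaraldehyde, stained with crystal violet, dye eluted in Sorensen solution; absorbance read at 590 nm.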

A value given as a limit tells only on which side of the number the result lay.

Turning to `FC(F)(F)c1ccc2c(c1)/C(=N\Nc1nc3ccccc3s1)CC2` [7-36], the “binding observed using DARTS assay” value at BRN2 was “DARTS- good binding”. Besides, in data set [1] (mouse, liver microsomes, pH 7.4, 1 μM compound, read-out: T1/2 in mins (MLM)), the half-life at 1 μM was more than 1 h. The “Met Stab % (60 mins) MLM” value in data set [1] (percent remaining at 60 min, 1 μM compound, 1 mM NADPH) was found to be 78%. The “Growth Specificity” value in the data set on 42D^ENZR cells is on record as “Specific to 42D, but weak activity”.

Source of the values: patent US20250205204A1, “Transcription Factor Brn2 Inhibitory Compounds for Use as Therapeutics” (The University of British Columbia, priority 2021, published 2025).
